The values below come from ChEMBL document CHEMBL5241086, “Research progress of indole compounds with potential antidiabetic activity” (Eur J Med Chem, 2021).

In brackets after ≈: the same amount, converted by molar mass.

Test [1] has as its target T1, Alpha glucosidase (Homo sapiens, UniProt O43451+P10253+P14410+Q2M2H8). The test is described as follows: Inhibition of alpha glucosidase (unknown origin) using p-nitrophenyl glucopyranoside as substrate by multimode plate reader analysis. The class given is protein assay.
Test [2] addresses Aldo-keto reductase family 1 member B1 (Homo sapiens) (UniProt P15121). The test is described as follows: Inhibition of Aldose reductase (unknown origin) using DL-Glyceraldehyde as substrate incubated for 5 mins in presence of NADPH by spectrophotometer analysis.
Test [3] addresses T1, Alpha glucosidase. The experiment in a line: Inhibition of alpha glucosidase (unknown origin) using p-nitrophenyl glucopyranoside as substrate by UV based microplate reader analysis. It is filed as protein assay.
The species entered for test [4] is Homo sapiens. The test is described as follows: Inhibition of beta-glucosidase (unknown origin) assessed as residual activity at 100 uM […] incubated for 1 hr followed by substrate addition and measured after 5 mins by spectrophotometer analysis relative to control. The following applies: time 65.0 hrs.
In test [5] the test system is Mus musculus. The test is described as follows: Antidiabetic activity in mouse assessed as reduction in blood glucose level at 100 mg/kg, po bid measured up to 21 days. It is filed as functional. The arrangement: scale not given: the % may be the effect or the level left. The following applies: time <= 21 day.
Test [6] addresses T1, Alpha glucosidase. The test is described as follows: Inhibition of alpha glucosidase (unknown origin) using p-nitrophenyl glucopyranoside as substrate preincubated for 15 mins followed by substrate addition and measured after 30 mins by spectrophotometer analysis. The class given is protein assay.
Test [7] deals with T1, Alpha glucosidase. The experiment in a line: Inhibition of alpha glucosidase (unknown origin) using p-nitrophenyl glucopyranoside as substrate by UV Vis- spectrophotometer analysis. It is filed as protein assay.
For test [8], the target named is T2, Glucose-dependent insulinotropic receptor (Homo sapiens, UniProt Q8TDV5).
T2 sequence (Q8TDV5 whole entry): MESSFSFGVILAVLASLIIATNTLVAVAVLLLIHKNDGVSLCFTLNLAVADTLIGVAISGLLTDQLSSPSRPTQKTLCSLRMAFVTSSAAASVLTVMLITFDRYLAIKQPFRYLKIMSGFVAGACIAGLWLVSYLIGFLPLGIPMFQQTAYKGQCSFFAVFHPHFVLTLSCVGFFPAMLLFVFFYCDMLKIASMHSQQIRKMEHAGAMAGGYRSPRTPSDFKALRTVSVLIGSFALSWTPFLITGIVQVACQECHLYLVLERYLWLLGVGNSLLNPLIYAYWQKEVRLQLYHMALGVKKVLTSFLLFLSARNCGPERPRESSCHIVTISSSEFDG
The test is described as follows: Agonist activity at human GPR119 incubated for 2 hrs by luciferase reporter gene assay.

`Clc1ccc2c(c1)NC(c1c[nH]c3ccccc13)OC2` (configuration not stated) gave an IC50 in test [1] of 11.5 µM.
For the compound `O=Cc1c(-c2ccccc2)[nH]c2ccccc12`, the inhibition in test [2] is 7.6%.
In turn, `Cc1ccnc(NC(=O)CSc2nnc(CCCc3c[nH]c4ccccc34)o2)c1` came in with an IC50 in test [3] of 9.37 µM.
As for `COC(=O)[C@H](Cc1c[nH]c2ccccc12)NC(=O)c1cccc([N+](=O)[O-])c1`, the Activity in test [4] is 37%.
`Cc1cccc(NC(=O)CSc2nnc(CCCc3c[nH]c4ccccc34)o2)c1C` registered an IC50 in test [3] of 9.46 µM.
In the case of `Clc1ccc2c(c1)COC(c1c(-c3ccccc3)[nH]c3ccccc13)N2` (configuration not stated), the IC50 in test [1] was 11.5 µM.
With `O=C1Nc2ccccc2/C1=N/NC(=S)N/N=C/c1ccc(Cl)cc1`, the Activity in test [5] worked out at 29.6%.
Turning to `O=C1Nc2ccccc2C1(c1cn(Cc2ccccc2F)c2ccccc12)c1cn(Cc2ccccc2F)c2ccccc12`, in test [6], the IC50 amounted to 5.98 µM.
The compound `Cc1ccc2c(c1)COC(c1c(C)[nH]c3ccccc13)N2` (configuration not stated) yielded an IC50 in test [1] of 11.5 µM.
In test [7], `Brc1ccc(-c2csc(-n3nc(-c4ccccc4)cc3-c3c[nH]c4ccccc34)n2)cc1` gave an IC50 of 236.1 µg/mL (≈ 475 µM).
With `O=[N+]([O-])c1cc(-c2cc3ccccc3[nH]2)ccc1Cl`, in test [2], the inhibition stood at 5.3%.
In test [1], `c1ccc2c(c1)COC(c1c[nH]c3ccccc13)N2` (configuration not stated) yielded a concentration for half-maximal inhibition (IC50) of 11.5 µM.
Consider `Nc1ccc(-c2cc3ccccc3[nH]2)cc1`, for which the inhibition in test [2] was 11%.
With `O=C(N[C@@H](Cc1c[nH]c2ccccc12)C(=O)O)c1cccc(Cl)c1`, the Activity in test [4] was 49%.
In test [1], `Cc1ccc2c(c1)COC(c1c(-c3ccccc3)[nH]c3ccccc13)N2` (configuration not stated) had an IC50 of 11.5 µM.
On to `CCc1cnc(N2CCC(C(C)COC(=O)N3CCc4cc(S(C)(=O)=O)ccc43)CC2)nc1` (configuration not stated), for which, in test [8], a half-maximal response (EC50) required 0.0039 µM.
In turn, `Cc1[nH]c2ccccc2c1C1Nc2ccccc2CO1` (configuration not stated) came in with an IC50 in test [1] of 11.5 µM.
